According to publication PMC12430429, “Synthesis, Structure, DNA/BSA Binding, DNA Cleaving, Cytotoxic and SOD Mimetic Activities of Copper(II) Complexes Derived from Methoxybenzylamine Schiff Base Ligands” (Molecules, 2025):

Assays:
[1] = test system: EB–DNA adduct (ct-DNA); assay: EB–DNA displacement method (fluorescence quenching); type: binding, calf; settings: for Stern–Volmer quenching constant Ksv / quenching rate constant kq: EB–DNA adduct; for quenching rate constant kq: τ0 = 23 × 10^−9 s; for Δ I/I0, EB–DNA fluorescence quenching: maximum quenching of EB–DNA emission
From the text: Competitive-binding experiments using the ethidium bromide (EB) displacement method from DNA may provide another confirmation of the binding affinity of the complexes. EB is a well-known DNA intercalator able to form an EB–DNA adduct by its insertion between adjacent DNA base pairs. The EB–DNA adduct is distinguished by an intense fluorescence emission band at 615 nm after excitation at 540 nm. Introducing a compound with DNA affinity leads to emission intensity decrease of the EB–DNA adduct as a result of the competition between the measured compound and EB for the binding sites within DNA.
Competitive-binding experiments to determine the displacement of the intercalator ethidium bromide (EB) from the EB–DNA adduct were conducted by fluorescence spectroscopy. To prepare the EB–DNA adduct, 20 μM EB and 54 μM ct-DNA were added to citrate buffer (sodium citrate at 15 mM and sodium chloride at 150 mM at pH = 7.0). The addition of increasing concentrations of complexes 4a–c (c = 1 mM) to a solution of the EB–DNA complex corresponded to the intercalating effect of the complexes. The concentration of the added complexes ranged from 0 to 0.2 mM. Fluorescence emission spectra were recorded in the range of 550–800 nm with an excitation wavelength of 515 nm. […] Quenching of the EB–DNA emission band by the compounds 4a–c was calculated using the Stern–Volmer equation (Equations (2)–(4)).
The extent of the inner-filter effect can be roughly estimated with the following equation:(2) Icorr=Imeas×10^ε(λexc)cd/2×10^ε(λem)cd/2 where Icorr is the corrected intensity, Imeas is the measured intensity, c is the quencher concentration, d is the width of the cuvette (1 cm) and ε(λexc) and ε(λem) are the […] of the quencher at the excitation and the emission wavelength calculated from the UV–Vis spectra of the complexes.
The quenching of the EB–DNA emission band by compounds was calculated via the Stern–Volmer equation:(3) Io/I=1+kqτ0Q=1+KSVQ where Io = the initial fluorescence intensity of the EB–DNA adduct, and I is the fluorescence intensity of the EB–DNA adduct after the addition of the quencher (studied complexes), kq = the quenching rate constant, KSV = the Stern–Volmer constant, τo = the average fluorescence lifetime of the EB–DNA adduct (23 × 10^−9 s), [Q] = the quencher concentration, respectively, KSV (in M^−1) can be obtained by the slope of the Stern–Volmer plot and kq (in M^−1 s^−1) can be calculated from Equation (4):(4) KSV=kqτ0

[2] = biological target: bovine serum albumin (BSA) (Bos taurus, UniProt P02769); assay: Bovine serum albumin binding (tryptophan fluorescence quenching); settings: for dynamic quenching constant Ksv / quenching constant kq: BSA 3 μM, citrate buffer pH 7.0; for association binding constant KBSA / n (number of binding sites for albumin): Scatchard equation
Experimental: The fluorescence emission spectra of BSA show intense fluorescence emission at 336 nm upon excitation at 280 nm. This is due to the presence of two tryptophan residues (Trp134 and Trp212). Fluorescence quenching data were analyzed to obtain various binding parameters for the interaction of complexes 4a–c with BSA.
The interaction of complexes with serum albumin was characterized by the Stern–Volmer constant Ksv and the quenching constant kq, which was calculated using the Stern–Volmer equation (Figure S4-2) together with the associate binding constant KBSA and the number of binding sites per albumin n determined from the Scatchard equations (Equation (6), Figure S4-3); the values are summarized in Table 6.
The BSA binding of complexes 4a–c was studied by tryptophan fluorescence emission quenching experiments using BSA (3 μM) in citrate buffer solution (containing 15 mM trisodium citrate and 150 mM sodium chloride at pH 7.0). The emission intensity quenching of BSA tryptophan residues at 336 nm was measured by increasing the concentration of the quencher complexes 4a–c. The concentration of the added complexes ranged from 0 to 0.2 mM. The fluorescence emission spectra were recorded in the 300–420 nm range and with an excitation wavelength of 280 nm. The values of the Stern–Volmer constant KSV (in M^−1), the BSA binding constant K (in M^−1) for the compound–BSA interaction and the BSA quenching constant kq (in M^−1 s^−1) have been calculated from the Stern–Volmer (Equations (2)–(4)). and Scatchard equations (Equation (6)):(6) ΔI/Io/[Q]=nK−KΔI/Io
The BSA binding constant K (in M^−1) can be calculated from the slope of the Scatchard plots, and the number of binding sites per albumin (n) is given by the ratio of the y intercept to the slope.

Sequence of bovine serum albumin (BSA) (P02769 25-607): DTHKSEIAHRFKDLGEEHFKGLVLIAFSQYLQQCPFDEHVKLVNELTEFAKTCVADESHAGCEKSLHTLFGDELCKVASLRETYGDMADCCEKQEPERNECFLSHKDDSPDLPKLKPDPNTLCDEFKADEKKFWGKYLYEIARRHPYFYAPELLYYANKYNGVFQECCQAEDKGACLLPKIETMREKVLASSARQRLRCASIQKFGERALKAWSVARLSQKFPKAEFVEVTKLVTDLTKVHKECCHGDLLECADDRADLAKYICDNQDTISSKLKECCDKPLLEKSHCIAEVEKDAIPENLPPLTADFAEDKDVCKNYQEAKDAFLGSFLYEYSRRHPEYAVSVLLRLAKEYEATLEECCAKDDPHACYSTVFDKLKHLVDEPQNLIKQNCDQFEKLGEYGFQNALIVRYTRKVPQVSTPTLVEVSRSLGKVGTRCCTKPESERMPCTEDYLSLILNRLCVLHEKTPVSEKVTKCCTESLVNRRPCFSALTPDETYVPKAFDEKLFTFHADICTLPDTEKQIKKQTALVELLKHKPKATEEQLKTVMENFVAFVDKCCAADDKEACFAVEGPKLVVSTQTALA

Structure (SMILES) | Stern–Volmer quenching constant Ksv [1] | quenching rate constant kq [1] | Δ I/I0, EB–DNA fluorescence quenching [1] | dynamic quenching constant Ksv [2] | quenching constant kq [2] | association binding constant KBSA [2] | n (number of binding sites for albumin) [2]
COc1ccccc1CN=Cc1ccccc1[O-].COc1ccccc1CN=Cc1ccccc1[O-].[Cl-].[Cl-].[Cu+2].[Cu+2] [Complex 4a, [Cu2 (Sal-2-MeOBn)2 Cl2]] | 4.58 (±0.10) M^−1 × 10^3 | 1.98 (±0.05) M^−1 s^−1 × 10^11 | 45.7% | 7.16 (±0.03) M^−1 × 10^4 | 7.16 (±0.03) M^−1s^−1 × 10^12 | 6.66 (±0.30) M^−1 × 10^4 | 1.03
COc1cccc(CN=Cc2ccccc2[O][Cu][O]c2ccccc2C=NCc2cccc(OC)c2)c1 [Complex 4b, [Cu (Sal-3-MeOBn)2]] | 3.61 (±0.09) M^−1 × 10^3 | 1.56 (±0.04) M^−1 s^−1 × 10^11 | 40.1% | 6.39 (±0.06) M^−1 × 10^4 | 6.39 (±0.06) M^−1s^−1 × 10^12 | 5.37 (±0.25) M^−1 × 10^4 | 0.94
COc1ccc(CN=Cc2ccccc2[O-])cc1.COc1ccc(CN=Cc2ccccc2[O-])cc1.[Cl-].[Cl-].[Cu+2].[Cu+2] [Complex 4c, [Cu2 (Sal-4-MeOBn)2 Cl2]] | 3.82 (±0.12) M^−1 × 10^3 | 1.66 (±0.05) M^−1 s^−1 × 10^11 | 40.7% | 4.86 (±0.15) M^−1 × 10^4 | 4.86 (±0.15) M^−1s^−1 × 10^12 | 4.77 (±0.20) M^−1 × 10^4 | 1.16
